Data taken from US6642020B2, “Process for preparing cephalosporin derivatives” (Bioferma Murcia S.A., priority 2001, dated 2003).

Experiment: Stability of cephalosporin C solution without thiol on heating
Assay type: physicochemical
Details: aqueous cephalosporin C solution without the thiol, 80° C.

CC(=O)OCC1=C(C(=O)O)N2C(=O)C(NC(=O)CCC[C@@H](N)C(=O)O)[C@H]2SC1 (stereo partly drawn) [cephalosporin C, 3-acetoxymethyl-7-(D-5-amino-5-carboxypentan amido)-ceph-3-em-4-carboxylic acid]
time to complete degradation (β-lactam ring degradation): ≤ 40 min
